Experimental data: US7115622B2, “Amido ether substituted imidazoquinolines” (3M Innovative Properties Company, priority 2000, dated 2006)

Assays:
interferon (α) = assay: Cytokine Induction in Human Cells: interferon induction in PBMC; type: cell-based; set-up: key to Lowest Effective Concentration (μM) Interferon: *: no induction was seen at any of the tested concentrations; generally the highest concentration tested was 10 or 30 μM; settings: 18 to 24 hours incubation, tested 30–0.014 μM, ELISA; for minimal effective concentration: read-out: Lowest Effective Concentration (μM) Interferon
Excerpt: (§1) An in vitro human blood cell system is used to assess cytokine induction. Activity is based on the measurement of interferon and tumor necrosis factor (α) (IFN and TNF, respectively) secreted into culture media as described by Testerman et. al. In “Cytokine Induction by the Immunomodulators Imiquimod and S-27609”, Journal of Leukocyte Biology, 58, 365–372 (September, 1995).
(§2) Whole blood from healthy human donors is collected by venipuncture into EDTA vacutainer tubes. Peripheral blood mononuclear cells (PBMC) are separated from whole blood by density gradient centrifugation using Histopaque®-1077. Blood is diluted 1:1 with Dulbecco's Phosphate Buffered Saline (DPBS) or Hank's Balanced Salts Solution (HBSS). The PBMC layer is collected and washed twice with DPBS or HBSS and resuspended at 4×10^6 cells/mL in RPMI complete. The PBMC suspension is added to 48 well flat bottom sterile tissue culture plates (Costar, Cambridge, Mass. or Becton Dickinson Labware, Lincoln Park, N.J.) containing an equal volume of RPMI complete media containing test compound.
(§3) The compounds are solubilized in dimethyl sulfoxide (DMSO). The DMSO concentration should not exceed a final concentration of 1% for addition to the culture wells. The compounds are generally tested at concentrations ranging from 30–0.014 μM.
(§4) The solution of test compound is added at 60 μM to the first well containing RPMI complete and serial 3 fold dilutions are made in the wells. The PBMC suspension is then added to the wells in an equal volume, bringing the test compound concentrations to the desired range (30–0.014 μM). The final concentration of PBMC suspension is 2×10^6 cells/mL. The plates are covered with sterile plastic lids, mixed gently and then incubated for 18 to 24 hours at 37° C. in a 5% carbon dioxide atmosphere.
(§5) Following incubation the plates are centrifuged for 10 minutes at 1000 rpm (˜200×g) at 4° C. The cell-free culture supernatant is removed with a sterile polypropylene pipet and transferred to sterile polypropylene tubes. Samples are maintained at −30 to −70° C. until analysis. The samples are analyzed for interferon (α) by ELISA and for tumor necrosis factor (α) by ELISA or IGEN Assay
Interferon (α) and Tumor Necrosis Factor (α) Analysis by ELISA Interferon (α) concentration is determined by ELISA using a Human Multi-Species kit from PBL Biomedical Laboratories, New Brunswick, N.J. Results are expressed in pg/mL.
(§6) The table below lists the lowest concentration found to induce interferon and the lowest concentration found to induce tumor necrosis factor for each compound.

[1] = tested on: tumor necrosis factor (α); assay: Cytokine Induction in Human Cells: tumor necrosis factor induction in PBMC; type: cell-based; set-up: key to Lowest Effective Concentration (μM) Tumor Necrosis Factor: *: no induction was seen at any of the tested concentrations; generally the highest concentration tested was 10 or 30 μM; settings: 18 to 24 hours incubation, tested 30–0.014 μM, ELISA or IGEN assay; for minimal effective concentration: read-out: Lowest Effective Concentration (μM) Tumor Necrosis Factor
Excerpt: as §1, §2, §3, §4, §5
Tumor necrosis factor (α) (TNF) concentration is determined using ELISA kits available from Biosource International, Camarillo, Calif. Alternately, the TNF concentration can be determined by Origen® M-Series Immunoassay and read on an IGEN M-8 analyzer from IGEN International, Gaithersburg, Md. The immunoassay uses a human TNF capture and detection antibody pair from Biosource International, Camarillo, Calif. Results are expressed in pg/mL.
as §6

| SMILES | minimal effective concentration (interferon (α)) [µM] | Lowest Effective Concentration (μM) Tumor Necrosis Factor [1] | minimal effective concentration [1] [µM] | Lowest Effective Concentration (μM) Interferon (interferon (α)) |
| --- | --- | --- | --- | --- |
| N#Cc1ccc(C(=O)NCCOCCn2cnc3c(N)nc4ccccc4c32)cc1 [Example 57] | 10 | * |  |  |
| CCCCC(=O)N1CCC(CCOCC(CC)n2cnc3c(N)nc4ccccc4c32)CC1 (stereo not drawn) [Example 36] | 1 |  | 1 |  |
| CCC(COCCC1CCN(C(=O)c2ccc(Cl)nc2)CC1)n1cnc2c(N)nc3ccccc3c21 (stereo not drawn) [Example 45] | 0.1 |  | 1 |  |
| CCC(COCCC1CCN(C(=O)c2cccc(C#N)c2)CC1)n1cnc2c(N)nc3ccccc3c21 (stereo not drawn) [Example 42] | 1 |  | 1 |  |
| CCCCc1nc2c(N)nc3ccccc3c2n1CCOCCNC(=O)C1CCCC1 [Example 17] | 1 |  | 1 |  |
| CCCCc1nc2c(N)nc3ccccc3c2n1CCOCCNC(=O)[C@@H]1C[C@H]1c1ccccc1 [Example 29] | 1 |  | 10 |  |
| CCCCc1nc2c(N)nc3ccccc3c2n1CCOCCNC(=O)c1cccc(OC)c1 [Example 26] | 1 |  | 10 |  |
| CCC(COCCC1CCN(C(=O)c2ccc3ccccc3c2)CC1)n1cnc2c(N)nc3ccccc3c21 (stereo not drawn) [Example 49] | 1 |  | 10 |  |
| CCC(COCCC1CCN(C(=O)c2ccccc2)CC1)n1cnc2c(N)nc3ccccc3c21 (stereo not drawn) [Example 38] | 1 |  | 10 |  |
| CCC(COCCC1CCN(C(=O)CCc2ccccc2)CC1)n1cnc2c(N)nc3ccccc3c21 (stereo not drawn) [Example 43] | 1 |  | 10 |  |
| CCC(COCCC1CCN(C(=O)c2ccc(OC)cc2)CC1)n1cnc2c(N)nc3ccccc3c21 (stereo not drawn) [Example 44] | 1 |  | 1 |  |
| Nc1nc2ccccc2c2c1ncn2CCOCCNC(=O)CCc1ccccc1 [Example 58] | 10 |  | 10 |  |
| CCC(COCCC1CCN(C(=O)COCc2ccccc2)CC1)n1cnc2c(N)nc3ccccc3c21 (stereo not drawn) [Example 48] | 0.1 |  | 10 |  |
| Nc1nc2ccccc2c2c1ncn2CCOCCNC(=O)c1cccc(C(F)(F)F)c1 [Example 64] | 10 | * |  |  |
| CCCCC(=O)NCCOCCn1cnc2c(N)nc3ccccc3c21 [Example 52] | 10 |  | 10 |  |
| CCCCc1nc2c(N)nc3ccccc3c2n1CCOCCNC(=O)c1ccc(OC(F)(F)F)cc1 [Example 34] |  |  | 10 | * |
| Nc1nc2ccccc2c2c1ncn2CCOCCNC(=O)C1CCCCC1 [Example 54] | 10 |  | 10 |  |
| CCC(COCCC1CCN(C(=O)c2ccc(F)cc2)CC1)n1cnc2c(N)nc3ccccc3c21 (stereo not drawn) [Example 40] | 1 |  | 1 |  |
| CCCCc1nc2c(N)nc3ccccc3c2n1CCOCCNC(=O)c1cccc(C(F)(F)F)c1 [Example 32] |  |  | 10 | * |
| CCCCN(C(=O)CCCCOCCn1cnc2c(N)nc3ccccc3c21)c1ccccc1 [Example 13, 5-[2-(4-amino-1H-imidazo[4,5-c]quinolin-1-yl)ethoxy]-N-butyl-N-phenylpentanamide] | 10 | * |  |  |
| CCCCc1nc2c(N)nc3ccccc3c2n1CCOCCNC(=O)c1ccc(OC)cc1 [Example 27] | 1 |  | 10 |  |
| CCCCc1nc2c(N)nc3ccccc3c2n1CCOCCNC(=O)c1ccc(Cl)nc1 [Example 28] | 1 |  | 10 |  |
| Nc1nc2ccccc2c2c1ncn2CCOCCNC(=O)c1ccc(OC(F)(F)F)cc1 [Example 66] |  | * |  | * |

| SMILES | minimal effective concentration (interferon (α)) [µM] | Lowest Effective Concentration (μM) Tumor Necrosis Factor [1] | minimal effective concentration [1] [µM] | Lowest Effective Concentration (μM) Interferon (interferon (α)) |
| --- | --- | --- | --- | --- |
| CCCCc1nc2c(N)nc3ccccc3c2n1CCOCCNC(=O)Cc1cccs1 [Example 22] | 0.1 |  | 10 |  |
| Nc1nc2ccccc2c2c1ncn2CCOCCNC(=O)c1ccc(C(F)(F)F)cc1 [Example 65] |  | * |  | * |
| COc1cccc(C(=O)NCCOCCn2cnc3c(N)nc4ccccc4c32)c1 [Example 59] | 10 |  | 10 |  |
| CCCCc1nc2c(N)nc3ccccc3c2n1CCOCCNC(=O)COCc1ccccc1 [Example 30] | 1 |  | 10 |  |
| CCCCc1nc2c(N)nc3ccccc3c2n1CCOCCNC(=O)c1cccc(C#N)c1 [Example 24] | 1 |  | 10 |  |
| CCCCc1nc2c(N)nc3ccccc3c2n1CCOCCNC(=O)c1cccc2ccccc12 [Example 31] |  |  | 10 | * |
| COc1ccc(C(=O)NCCOCCn2cnc3c(N)nc4ccccc4c32)cc1 [Example 60] | 10 |  | 10 |  |
| CCC(COCCC1CCN(C(=O)C2CC2)CC1)n1cnc2c(N)nc3ccccc3c21 (stereo not drawn) [Example 35] | 0.1 |  | 1 |  |
| CCCCc1nc2c(N)nc3ccccc3c2n1CCOCCNC(=O)c1ccc(C#N)cc1 [Example 23] | 1 |  | 10 |  |
| CCC(COCCC1CCN(C(=O)Cc2cccs2)CC1)n1cnc2c(N)nc3ccccc3c21 (stereo not drawn) [Example 41] | 0.1 |  | 1 |  |
| Nc1nc2ccccc2c2c1ncn2CCOCCNC(=O)c1ccc2ccccc2c1 [Example 63] |  |  | 10 | * |
| CCCCc1nc2c(N)nc3ccccc3c2n1CCOCCNC(=O)Cc1ccccc1 [Example 20] | 0.1 |  | 10 |  |
| CCCCc1nc2c(N)nc3ccccc3c2n1CCOCCNC(=O)CCc1ccccc1 [Example 25] | 1 |  | 10 |  |
| Nc1nc2ccccc2c2c1ncn2CCOCCNC(=O)c1ccc(Cl)nc1 [Example 61] | 10 |  | 10 |  |
| Nc1nc2ccccc2c2c1ncn2CCOCCNC(=O)COCc1ccccc1 [Example 62] | 1 |  | 10 |  |
| CCCCc1nc2c(N)nc3ccccc3c2n1CCOCCNC(=O)c1ccccc1 [Example 18] | 1 |  | 10 |  |
| CCCCc1nc2c(N)nc3ccccc3c2n1CCOCCNC(=O)c1ccc(C(F)(F)F)cc1 [Example 33] |  |  | 10 | * |
| CCCCC(=O)NCCOCCn1c(CCCC)nc2c(N)nc3ccccc3c21 [Example 16] | 0.1 |  | 1 |  |
| CCC(COCCC1CCN(C(=O)[C@@H]2C[C@H]2c2ccccc2)CC1)n1cnc2c(N)nc3ccccc3c21 (stereo partly drawn) [Example 47] | 1 | * |  |  |
| Nc1nc2ccccc2c2c1ncn2CCOCCNC(=O)Cc1cccs1 [Example 56] | 1 |  | 10 |  |
| CCC(COCCC1CCN(C(=O)Cc2ccccc2)CC1)n1cnc2c(N)nc3ccccc3c21 (stereo not drawn) [Example 39] | 1 |  | 10 |  |
| CCC(COCCC1CCN(C(=O)c2ccc(OC(F)(F)F)cc2)CC1)n1cnc2c(N)nc3ccccc3c21 (stereo not drawn) [Example 51] | 10 |  | 10 |  |
